Test results reported in patent publication US9409924B2, “Selective glycosidase inhibitors and uses thereof” (Alectos Therapeutics Inc., priority 2011, dated 2016).

Tests used:
[1] = Assay for determination of apparent permeability (Papp), bi-directional transport; type: in vitro ADME; settings: pig, LLC-PK1; 1 μM test compound, t=3 h, average of A to B and B to A; read-out: Papp LLC-PK1 cells
Procedure: Assay for Determination of Apparent Permeability (Papp)
Bi-directional transport was evaluated in LLC-PK1 cells in order to determine apparent permeability (Papp). LLC-PK1 cells can form a tight monolayer and therefore can be used to assess vectorial transport of compounds from basolateral to apical (B→A) and from apical to basolateral (A→B).
To determine Papp, LLC-PK1 cells were cultured in 96-well transwell culture plates (Millipore). Solutions containing the test compounds (1 μM) were prepared in Hank's Balanced Salt Solution with 10 mM HEPES. Substrate solution (150 μL) was added to either the apical (A) or the basolateral (B) compartment of the culture plate, and buffer (150 μL) was added to the compartment opposite to that containing the compound. At t=3 h, 50 μL samples were removed from both sides of monolayers dosed with test compound and placed in 96 well plates, scintillant (200 μL) or internal standard (100 μL labetolol 1 μM) was added to the samples and concentration was determined by liquid scintillation counting in a MicroBeta Wallac Trilux scintillation counter (Perkin Elmer Life Sciences, Boston, Mass.) or by LCMS/MS (Applied Biosystems SCIEX API 5000 triple quadruple mass spectrometer). [^3H]Verapamil (1 μM) was used as the positive control. The experiment was performed in triplicate.
[formula] Where: Volume of Receptor Chamber was 0.15 mL; Area of membrane was 0.11 cm^2; the Initial Concentration is the sum of the concentration measured in the donor plus concentration measured in receiver compartments at t=3 h; A in Concentration is concentration in the receiver compartment at 3 h; and Δ in Time is the incubation time (3×60×60=10800 s). Papp was expressed as 10^−6 cm/s.

human O-GlcNAcase = human O-GlcNAcase (Homo sapiens (Human), UniProt O60502); test: Assay for determination of KI values for inhibition of O-GlcNAcase activity (fluorescence-based hOGA); type: biochemical; settings: purified human O-GlcNAcase, 4-Methylumbelliferyl N-acetyl-β-D-glucosaminide substrate, pH 7.0, Cheng-Prusoff
Sequence of human O-GlcNAcase (O60502 whole entry): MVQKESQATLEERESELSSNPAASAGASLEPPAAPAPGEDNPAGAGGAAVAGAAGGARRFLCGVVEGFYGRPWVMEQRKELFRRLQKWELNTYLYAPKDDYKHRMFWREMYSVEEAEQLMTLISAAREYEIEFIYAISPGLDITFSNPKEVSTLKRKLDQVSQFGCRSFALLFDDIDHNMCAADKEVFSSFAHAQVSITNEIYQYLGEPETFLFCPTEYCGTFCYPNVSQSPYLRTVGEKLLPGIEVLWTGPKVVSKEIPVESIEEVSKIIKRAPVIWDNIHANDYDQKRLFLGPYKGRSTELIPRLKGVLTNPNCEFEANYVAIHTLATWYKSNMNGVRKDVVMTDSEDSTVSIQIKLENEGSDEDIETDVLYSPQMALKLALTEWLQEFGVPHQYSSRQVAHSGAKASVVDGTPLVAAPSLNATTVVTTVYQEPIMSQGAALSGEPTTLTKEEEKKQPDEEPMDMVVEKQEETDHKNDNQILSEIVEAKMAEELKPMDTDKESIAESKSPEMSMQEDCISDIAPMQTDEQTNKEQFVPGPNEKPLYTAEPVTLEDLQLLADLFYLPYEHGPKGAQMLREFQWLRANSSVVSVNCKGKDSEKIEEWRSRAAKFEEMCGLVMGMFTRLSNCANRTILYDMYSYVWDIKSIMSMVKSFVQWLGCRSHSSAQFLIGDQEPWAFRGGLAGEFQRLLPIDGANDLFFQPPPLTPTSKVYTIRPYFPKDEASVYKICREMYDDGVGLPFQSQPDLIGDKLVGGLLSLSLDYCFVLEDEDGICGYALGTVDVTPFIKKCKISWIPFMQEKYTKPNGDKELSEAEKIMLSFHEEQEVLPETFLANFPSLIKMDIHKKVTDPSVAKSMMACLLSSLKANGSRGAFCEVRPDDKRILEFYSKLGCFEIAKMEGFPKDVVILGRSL
Procedure: Assay for Determination of KI Values for Inhibition of O-GlcNAcase Activity
Experimental Procedure for Kinetic Analyses:
Enzymatic reactions were carried out in a reaction containing 50 mM NaH2PO4, 100 mM NaCl and 0.1% BSA (pH 7.0) using 2 mM 4-Methylumbelliferyl N-acetyl-β-D-glucosaminide dihydrate (Sigma M2133) dissolved in ddH2O, as a substrate. The amount of purified human O-GlcNAcase enzyme used in the reaction was 0.7 nM. Test compound of varying concentrations was added to the enzyme prior to initiation of the reaction. The reaction was performed at room temperature in a 96-well plate and was initiated with the addition of substrate. […] The slope of product production was determined for each concentration of compound tested and plotted, using standard curve fitting algorithms for sigmoidal dose response curves. The values for a four parameter logistic curve fit of the data were determined.

O-GlcNAcase = O-GlcNAcase (Rattus norvegicus (Rat), UniProt Q8VIJ5); test: Cell-based ELISA of O-GlcNAcylated protein (RL-2 antibody) for cellular activity of O-GlcNAcase inhibitors; settings: rat PC-12 cells, 24 h treatment, O-GlcNAcylated protein detected with RL-2 antibody
Sequence of O-GlcNAcase (Q8VIJ5 whole entry): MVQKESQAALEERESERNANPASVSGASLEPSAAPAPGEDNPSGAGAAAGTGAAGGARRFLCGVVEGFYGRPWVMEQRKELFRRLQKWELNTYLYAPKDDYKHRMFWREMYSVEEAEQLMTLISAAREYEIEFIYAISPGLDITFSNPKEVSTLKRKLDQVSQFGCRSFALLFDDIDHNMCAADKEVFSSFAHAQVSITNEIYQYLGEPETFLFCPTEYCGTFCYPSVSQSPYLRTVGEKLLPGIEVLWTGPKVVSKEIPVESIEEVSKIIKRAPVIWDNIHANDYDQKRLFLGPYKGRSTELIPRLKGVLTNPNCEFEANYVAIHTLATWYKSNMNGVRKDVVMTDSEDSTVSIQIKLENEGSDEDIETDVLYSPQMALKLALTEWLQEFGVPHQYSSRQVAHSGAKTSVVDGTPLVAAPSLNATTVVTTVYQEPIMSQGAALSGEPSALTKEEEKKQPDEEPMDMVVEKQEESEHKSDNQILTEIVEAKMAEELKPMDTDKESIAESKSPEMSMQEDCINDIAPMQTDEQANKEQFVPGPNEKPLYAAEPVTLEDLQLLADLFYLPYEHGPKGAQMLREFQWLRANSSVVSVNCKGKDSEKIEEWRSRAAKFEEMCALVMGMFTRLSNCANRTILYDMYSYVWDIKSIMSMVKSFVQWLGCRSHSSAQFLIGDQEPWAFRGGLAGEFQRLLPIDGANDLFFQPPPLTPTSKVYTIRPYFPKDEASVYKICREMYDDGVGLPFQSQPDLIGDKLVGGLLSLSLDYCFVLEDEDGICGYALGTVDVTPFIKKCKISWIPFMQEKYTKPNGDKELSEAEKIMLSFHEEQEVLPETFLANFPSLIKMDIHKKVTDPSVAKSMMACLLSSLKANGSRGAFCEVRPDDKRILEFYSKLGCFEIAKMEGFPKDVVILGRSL
Text: Assay for Determination of Cellular Activity for Compounds that Inhibit O-GlcNAcase Activity
Inhibition of O-GlcNAcase, which removes O-GlcNAc from cellular proteins, results in an increase in the level of O-GlcNAcylated protein in cells. An increase in O-GlcNAcylated protein can be measured by an antibody, such as RL-2, that binds to O-GlcNAcylated protein. The amount of O-GlcNAcylated protein:RL2 antibody interaction can be measured by enzyme linked immunosorbant assay (ELISA) procedures.
A variety of tissue culture cell lines, expressing endogenous levels of O-GlcNAcase, can be utilized; examples include rat PC-12, and human U-87, or SK—N—SH cells. […] Compounds to be tested were dissolved in DMSO, either 2 or 10 mM stock solution, and then diluted with DMSO and water in a two-step process using a Tecan workstation. […] To prepare a cell lysate, the media from compound treated cells was removed, the cells were washed once with phosphate buffered saline (PBS) and then lysed for 5 minutes at room temperature in 50 μL of Phosphosafe reagent (Novagen Inc, Madison, Wis.) with protease inhibitors and PMSF. The cell lysate was collected and transferred to a new plate, which was then either coated to assay plates directly or frozen −80° C. until used in the ELISA procedure. If desired, the total protein concentration of samples was determined using 20 μL of the sample using the BCA method.
The ELISA portion of the assay was performed in a black Maxisorp 96-well plate that was coated overnight at 4° C. with 100 μL/well of the cell lysate (1:10 dilution of the lysate with PBS containing protease inhibitors, phosphatase inhibitors, and PMSF). […]
The amount of O-GlcNAcylated protein, as detected by the ELISA assay, was plotted for each concentration of test compound using standard curve fitting algorithms for sigmoidal dose response curves. The values for a four parameter logistic curve fit of the data were determined, with the inflection point of the curve being the potency value for the test compound.

Row | SMILES | Papp at 3 h, 1 μM [1] [nm/s] | Ki (human O-GlcNAcase) [µM] | EC50 (O-GlcNAcase) [µM]
1 | CNC1=N[C@@H]2[C@H](F)[C@H](O)[C@@H]([C@H](C)O)O[C@@H]2S1 [Example 34, (3aR,5R,6R,7S,7aR)-7-fluoro-5-((S)-1-hydroxyethyl)-2-(methylamino)-5,6,7,7a-tetrahydro-3aH-pyrano[3,2-d]thiazol-6-ol] | 19 | – | –
2 | O[C@H]1[C@H](F)[C@H]2N=C(N3CCC3)S[C@H]2O[C@@H]1[C@@H](O)C(F)(F)F [Example 32, (3aR,5S,6R,7R,7aR)-2-(azetidin-1-yl)-7-fluoro-5-((R)-2,2,2-trifluoro-1-hydroxyethyl)-5,6,7,7a-tetrahydro-3aH-pyrano[3,2-d]thiazol-6-ol] | 210 | 0.013 | –
3 | CCNC1=N[C@@H]2C[C@H](O)[C@@H]([C@H](C)O)O[C@@H]2S1 [Example 13, (3aR,5R,6S,7aR)-2-(ethylamino)-5-((S)-1-hydroxyethyl)-5,6,7,7a-tetrahydro-3aH-pyrano[3,2-d]thiazol-6-ol] | 23 | 0.026 | –
4 | CC[C@H]1O[C@@H]2SC(NC)=N[C@@H]2[C@@H](F)[C@@H]1O [Example 15, (3aR,5R,6R,7R,7aR)-5-ethyl-7-fluoro-2-(methylamino)-5,6,7,7a-tetrahydro-3aH-pyrano[3,2-d]thiazol-6-ol] | 340 | 0.156 | –
5 | CNC1=N[C@@H]2[C@@H](F)[C@H](O)[C@@H]([C@H](C)O)O[C@@H]2S1 [Example 1, (3aR,5R,6R,7R,7aR)-7-fluoro-5-((S)-1-hydroxyethyl)-2-(methylamino)-5,6,7,7a-tetrahydro-3aH-pyrano[3,2-d]thiazol-6-ol] | 33 | – | –
6 | CNC1=N[C@@H]2[C@H](F)[C@H](O)[C@@H](C(C)(C)O)O[C@@H]2S1 [Example 43, (3aR,5S,6R,7S,7aR)-7-fluoro-5-(2-hydroxypropan-2-yl)-2-(methylamino)-5,6,7,7a-tetrahydro-3aH-pyrano[3,2-d]thiazol-6-ol] | 24 | 0.39 | –
7 | CNC1=N[C@@H]2[C@@H](F)[C@H](O)[C@@H]([C@@H](O)C(F)(F)F)O[C@@H]2S1 [Example 9, (3aR,5S,6R,7R,7aR)-7-fluoro-2-(methylamino)-5-((R)-2,2,2-trifluoro-1-hydroxyethyl)-5,6,7,7a-tetrahydro-3aH-pyrano[3,2-d]thiazol-6-ol] | 66 | 0.0035 | 0.074
8 | C[C@H](O)[C@H]1O[C@@H]2SC(N(C)C)=N[C@@H]2[C@@H](F)[C@@H]1O [Example 5, (3aR,5R,6R,7R,7aR)-2-(dimethylamino)-7-fluoro-5-((S)-1-hydroxyethyl)-5,6,7,7a-tetrahydro-3aH-pyrano[3,2-d]thiazol-6-ol] | 140 | 0.016 | –
9 | CCNC1=N[C@@H]2[C@H](F)[C@H](O)[C@@H]([C@@H](C)O)O[C@@H]2S1 [Example 37, (3aR,5R,6R,7S,7aR)-2-(ethylamino)-7-fluoro-5-((R)-1-hydroxyethyl)-5,6,7,7a-tetrahydro-3aH-pyrano[3,2-d]thiazol-6-ol] | 21 | 0.266 | –
10 | CCNC1=N[C@@H]2[C@@H](F)[C@H](O)[C@@H]([C@@H](O)C(F)(F)F)O[C@@H]2S1 [Example 7, (3aR,5S,6R,7R,7aR)-2-(ethylamino)-7-fluoro-5-((R)-2,2,2-trifluoro-1-hydroxyethyl)-5,6,7,7a-tetrahydro-3aH-pyrano[3,2-d]thiazol-6-ol] | 150 | 0.016 | –
11 | CN(C)C1=N[C@@H]2[C@@H](F)[C@H](O)[C@@H]([C@@H](O)C(F)(F)F)O[C@@H]2S1 [Example 11, (3aR,5S,6R,7R,7aR)-2-(dimethylamino)-7-fluoro-5-((R)-2,2,2-trifluoro-1-hydroxyethyl)-5,6,7,7a-tetrahydro-3aH-pyrano[3,2-d]thiazol-6-ol] | 230 | 0.0095 | –
12 | CCNC1=N[C@@H]2[C@@H](F)[C@H](O)[C@@H]([C@H](C)O)O[C@@H]2S1 [Example 3, (3aR,5R,6R,7R,7aR)-2-(ethylamino)-7-fluoro-5-((S)-1-hydroxyethyl)-5,6,7,7a-tetrahydro-3aH-pyrano[3,2-d]thiazol-6-ol] | 52 | 0.012 | –
13 | CC[C@H]1O[C@@H]2SC(NC)=N[C@@H]2[C@H](F)[C@@H]1O [Example 42, (3aR,5R,6R,7S,7aR)-5-ethyl-7-fluoro-2-(methylamino)-5,6,7,7a-tetrahydro-3aH-pyrano[3,2-d]thiazol-6-ol] | – | 0.05 | –
14 | CNC1=N[C@@H]2C[C@H](O)[C@@H]([C@@H](O)C(F)(F)F)O[C@@H]2S1 [Example 20, (3aR,5S,6S,7aR)-2-(methylamino)-5-((R)-2,2,2-trifluoro-1-hydroxyethyl)-5,6,7,7a-tetrahydro-3aH-pyrano[3,2-d]thiazol-6-ol] | 34 | 0.0035 | 0.05
15 | CNC1=N[C@@H]2[C@H](F)[C@H](O)[C@@H]([C@@H](O)C(F)(F)F)O[C@@H]2S1 [Example 38, (3aR,5S,6R,7S,7aR)-7-fluoro-2-(methylamino)-5-((R)-2,2,2-trifluoro-1-hydroxyethyl)-5,6,7,7a-tetrahydro-3aH-pyrano[3,2-d]thiazol-6-ol] | 37 | 0.0007 | 0.0091
16 | CNC1=N[C@@H]2C[C@H](O)[C@@H]([C@@](C)(O)C(F)(F)F)O[C@@H]2S1 [Example 29, (3aR,5S,6S,7aR)-2-(methylamino)-5-((R)-1,1,1-trifluoro-2-hydroxypropan-2-yl)-5,6,7,7a-tetrahydro-3aH-pyrano[3,2-d]thiazol-6-ol] | – | 0.492 | –
